Data on two compounds can be found in publication PMC4016869, “In Search of the Active Metabolites of an Anticancer Piperazinedione, TW01003, in Rats” (BioMed Research International, 2014).

Structures can show the parent of a compound that is named as a salt.

A short description of series [1]: Identification of TW01003 metabolites in pig urine after i.v. administration (HPLC, sulfatase treatment). The conditions noted are these: i.v. TW01003 200 mg, urine 60 min after dosing. In kind it is in vivo. The source says:
Crossbred 3-4-month-old pigs weighing 40–50 kg, obtained from the Animal Technology Institute, Taiwan (Miaoli, Taiwan), were used in a preliminary metabolic study for establishing the HPLC analytical method for the identification of TW01003 and its metabolites. The phase II conjugate TW01003 sulfate was first isolated from pig urine as an authentic sample for analysis. Male Wistar rats (200–250 g) for pharmacokinetic studies were purchased from the Laboratory Animal Center of National Taiwan University (Taipei, Taiwan). The animals were pathogen free and allowed to acclimate to the environmentally controlled quarters (24 ± 1°C and 12 : 12 h light-dark cycle) for at least 5 days before the experiments. Animal studies were conducted in accordance with the Guide for the Care and Use of Laboratory Animals.
In order to establish a feasible analytical method for the identification of TW01003 metabolites in a biological system, a test solution containing 200 mg of TW01003 was first injected into a 40–50 kg pig. Fresh urine (1 mL) was collected 60 min after dosing, filtered through a 0.22 μm Millipore filter, and subjected to HPLC analysis. Typical HPLC chromatograms of urine sample of untreated pig (Figure 2(a)), urine samples upon i.v. dosing of TW01003 (Figure 2(b)), and urine samples after sulfatase treatment (Figure 2(c)) are depicted.

Series [2] is described as follows: Pharmacokinetics of TW01003 and TW01003 sulfate after i.v. administration of TW01003 in Wistar rats. The class given is in vivo, rat. Conditions: for Cmax / MRT inf / Vd / clearance / half-life: male, rat, iv; for Cmax / MRT inf / Vd / clearance / half-life / AUMCINF / AUCINF / AUCall: plasma, i.v. TW01003 2.0 mg/kg; for Cmax / MRT inf / Vd / clearance / half-life / AUMCINF: n = 6, mean ± SD; for AUCINF: n = 6, time 0 to infinite; for AUCINF / AUCall: mean ± SD; for AUCall: n = 6, time 0 to last sampling time. On the procedure: Single-dose TW01003 in a solution (1 mL) containing a 9 : 1 (v/v) ratio of vehicle V : 10% Na2CO3(aq) was used for animal studies in pig or in male Wistar rats. For metabolic studies, the TW01003 test solution was administered intravenously (7 mg/kg, n = 1) to the tail vein or orally (36 mg/kg, n = 1) by a feeding tube. For pharmacokinetic studies, the test solution was administered intravenously to the tail vein of Wistar rats (2.0 mg/kg, 1 mL, n = 6). The rats were put under a heating lamp to maintain body temperatures at 37°C throughout the experiment. All procedures involving the use of animals were approved by the Institutional Animal Care and Use Committee of Taipei Medical University.
Blood samples (0.5 mL) were withdrawn from the carotid artery of rats at time intervals of 5, 15, 30, 45, 60, 90, 120, 180, and 240 min. Heparin sodium (25 IU/mL in 0.3 mL of saline) was added, and the blood samples were centrifuged (5,585 g) at 4°C for 8 min. The plasma was frozen immediately and kept at −78°C until analysis. The plasma sample (150 μL) was mixed with a sulfatase solution (200 IU/mL, 50 μL) at 37°C for 2 h. The plasma sample (150 μL) mixed with 50 μL of a buffer solution (pH 5.0) was used for the control group. The internal standard solution was then added, and the solution was centrifuged (5,585 g) for 10 min. The supernatant was concentrated to dryness with nitrogen gas. The D5W vehicle (200 μL) was then added to the residue, and the solution was subjected to HPLC analysis.
We established the plasma concentration-time profile. The area under the plasma concentration-time profile (AUC) and other pharmacokinetic parameters (peak concentration: C max; time to reach C max: T max; area under the moment curve: AUMC; volume of distribution: V D) were calculated using the log-linear trapezoidal rule. […] Terminal half-life (t 1/2) was compartment model-independently estimated. Data analysis was performed using Microsoft Excel, and data were represented as mean ± standard deviation (SD) for n experiments. Treatment differences were evaluated by the paired t-test.

Series [3] is described as follows: Metabolic study of TW01003 in a rat after i.v. administration (plasma, enzymatic treatment, HPLC). The class given is in vivo. On the procedure: Single-dose TW01003 in a solution (1 mL) containing a 9 : 1 (v/v) ratio of vehicle V : 10% Na2CO3(aq) was used for animal studies in pig or in male Wistar rats. For metabolic studies, the TW01003 test solution was administered intravenously (7 mg/kg, n = 1) to the tail vein or orally (36 mg/kg, n = 1) by a feeding tube. For pharmacokinetic studies, the test solution was administered intravenously to the tail vein of Wistar rats (2.0 mg/kg, 1 mL, n = 6). The rats were put under a heating lamp to maintain body temperatures at 37°C throughout the experiment. All procedures involving the use of animals were approved by the Institutional Animal Care and Use Committee of Taipei Medical University. Blood samples (0.5 mL) were withdrawn from the carotid artery of rats at time intervals of 5, 15, 30, 45, 60, 90, 120, 180, and 240 min. Heparin sodium (25 IU/mL in 0.3 mL of saline) was added, and the blood samples were centrifuged (5,585 g) at 4°C for 8 min. The plasma was frozen immediately and kept at −78°C until analysis. The plasma sample (150 μL) was mixed with a sulfatase solution (200 IU/mL, 50 μL) at 37°C for 2 h. The plasma sample (150 μL) mixed with 50 μL of a buffer solution (pH 5.0) was used for the control group. The internal standard solution was then added, and the solution was centrifuged (5,585 g) for 10 min. The supernatant was concentrated to dryness with nitrogen gas. […]

In series [4] the test system is 60 human disease-oriented cancer cell panel. Details: method as in PMID 23567646. The conditions noted are these: cited from earlier work.
The test system of series [5] is vascular endothelial growth factor- (VEGF-) induced angiogenesis. Kind of series: Matrigel with VEGF-induced angiogenesis after oral treatment in mice. In kind it is in vivo. Conditions: oral TW01003 3 mg/kg, unpublished data.
Series [6] is described as follows: Preliminary pharmacokinetic study, oral administration to rats. The class given is in vivo. The conditions noted are these: unpublished data.

Consider `O=c1[nH]/c(=C\c2ccc(OS(=O)(=O)O)cn2)c(=O)[nH]/c1=C\c1ccccc1` [TW01003 sulfate], for which, in series [1], the “metabolite found in pig urine” value is “major metabolite”. Besides, in series [2] (i.v. TW01003, n = 6), the “clearance rate relative to TW01003” value came out at 2.3 times lower, the “residence time (MRTINF) relative to TW01003” value is “seven times longer”, the “systemic exposure (AUCINF) relative to TW01003” value is reported as 2.5 times higher and the “volume of distribution relative to TW01003” value is given as “three times higher”. In series [2], the Cmax was determined as 1310 ± 640 ng/mL, the MRT inf was 1.44 ± 0.33 h, the Vd turned out to be 4.43 ± 1.52 L/kg and the clearance was 51.3 mL/min/kg. In series [2], this compound gave a half-life of 1.31 ± 0.22 h, an AUMCINF of 1.01 ± 0.36 h∗h∗μg/mL, an AUCINF of 0.71 ± 0.25 h∗μg/mL and an AUCall of 0.52 ± 0.20 h∗μg/mL. The “metabolite in rat plasma after i.v. administration” value in series [3] (Wistar rat, i.v. TW01003 6.7 mg/kg, n = 1) was “major metabolite”.

Take `O=c1[nH]/c(=C/c2ccc(O)cn2)c(=O)[nH]/c1=C/c1ccccc1` [TW01003, (3E,6E)-3-Benzylidene-6-[(5-hydroxypyridin-2-yl)methylene]piperazine-2,5-dione]: the “antitumor activity in words” value in series [4] was “broad spectrum of antitumor activities”. For the same compound, the “hemoglobin count of the matrigel reduced to” value in series [5] was below 1%. Besides, in series [2], the highest level (Cmax) was 2200 ± 250 ng/mL, the MRT inf turned out to be 0.2 ± 0.06 h, the Vd worked out at 1.41 ± 0.41 L/kg and the clearance was 118 mL/min/kg. In series [2], this compound had a half-life of 0.76 ± 0.14 h, an AUMCINF of 0.06 ± 0.02 h∗h∗μg/mL, an AUCINF of 0.29 ± 0.04 h∗μg/mL and an AUCall of 0.28 ± 0.04 h∗μg/mL. In addition, the clearance in words result in series [3] (rat, i.v. 6.7 mg/kg or oral 36.0 mg/kg, regardless of administration method) was “cleared fairly rapidly”. Also, the oral fraction absorbed in series [6] is 1.72%.

What is called Cmax is the highest concentration seen after dosing. As usually defined, the MRT inf is the average time that molecules of a dose stay in the body. In general, Vd refers to a proportionality between amount in the body and measured concentration, not a real space. The low end stands for confinement near the circulation, the high end for extensive tissue distribution. What is called clearance is a measure of how efficiently the substance is removed, as volume per time. A higher clearance goes with efficient removal. What is called half-life is the time in which the quantity being followed falls by half. A lower half-life goes with fast loss.
